The text below walks through data of ChEMBL document CHEMBL4304809 (ACS Med Chem Lett, 2019).

Data set [1] concerns the target T1, Serine/threonine-protein kinase D1 (Homo sapiens, UniProt Q15139).
T1 sequence (Q15139 whole entry): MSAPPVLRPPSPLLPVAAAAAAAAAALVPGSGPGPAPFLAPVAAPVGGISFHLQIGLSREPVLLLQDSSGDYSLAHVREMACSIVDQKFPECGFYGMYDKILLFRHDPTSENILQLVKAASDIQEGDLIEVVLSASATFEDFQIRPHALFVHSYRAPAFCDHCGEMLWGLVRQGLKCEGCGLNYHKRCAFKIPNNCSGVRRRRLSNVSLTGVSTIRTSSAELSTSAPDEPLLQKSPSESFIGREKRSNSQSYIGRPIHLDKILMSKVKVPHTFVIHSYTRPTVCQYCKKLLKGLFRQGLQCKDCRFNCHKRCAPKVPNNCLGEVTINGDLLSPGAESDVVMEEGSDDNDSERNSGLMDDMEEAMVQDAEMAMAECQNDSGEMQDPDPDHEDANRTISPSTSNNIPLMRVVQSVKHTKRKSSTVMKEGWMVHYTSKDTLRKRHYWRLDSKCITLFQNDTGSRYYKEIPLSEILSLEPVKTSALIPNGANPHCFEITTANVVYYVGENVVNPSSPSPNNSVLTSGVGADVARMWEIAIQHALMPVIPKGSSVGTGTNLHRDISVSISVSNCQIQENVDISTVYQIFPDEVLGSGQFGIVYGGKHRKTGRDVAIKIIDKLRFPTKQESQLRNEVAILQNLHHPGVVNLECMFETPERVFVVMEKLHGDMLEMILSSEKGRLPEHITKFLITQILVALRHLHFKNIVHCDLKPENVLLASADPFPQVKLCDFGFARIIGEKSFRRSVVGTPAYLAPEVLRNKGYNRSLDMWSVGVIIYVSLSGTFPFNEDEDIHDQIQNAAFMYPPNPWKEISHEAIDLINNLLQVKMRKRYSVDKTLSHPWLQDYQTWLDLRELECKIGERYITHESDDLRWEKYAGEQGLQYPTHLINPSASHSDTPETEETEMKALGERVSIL
The data set is described as follows: Inhibition of full length GST-tagged human PRKD1 expressed in Baculovirus expression system using ATP as substrate incubated for 1 to 2 hrs by transcreener ADP assay based fluorescence correlation spectroscopic analysis.

The target of data set [2] is Mitogen-activated protein kinase kinase kinase 14 (Homo sapiens, UniProt Q99558). The data set is described as follows: Inhibition of NIK (unknown origin) using ATP as substrate by transcreener ADP assay based fluorescence correlation spectroscopic analysis. The format is single protein.
Sequence of Mitogen-activated protein kinase kinase kinase 14 (Q99558 whole entry, the tested form may be a part): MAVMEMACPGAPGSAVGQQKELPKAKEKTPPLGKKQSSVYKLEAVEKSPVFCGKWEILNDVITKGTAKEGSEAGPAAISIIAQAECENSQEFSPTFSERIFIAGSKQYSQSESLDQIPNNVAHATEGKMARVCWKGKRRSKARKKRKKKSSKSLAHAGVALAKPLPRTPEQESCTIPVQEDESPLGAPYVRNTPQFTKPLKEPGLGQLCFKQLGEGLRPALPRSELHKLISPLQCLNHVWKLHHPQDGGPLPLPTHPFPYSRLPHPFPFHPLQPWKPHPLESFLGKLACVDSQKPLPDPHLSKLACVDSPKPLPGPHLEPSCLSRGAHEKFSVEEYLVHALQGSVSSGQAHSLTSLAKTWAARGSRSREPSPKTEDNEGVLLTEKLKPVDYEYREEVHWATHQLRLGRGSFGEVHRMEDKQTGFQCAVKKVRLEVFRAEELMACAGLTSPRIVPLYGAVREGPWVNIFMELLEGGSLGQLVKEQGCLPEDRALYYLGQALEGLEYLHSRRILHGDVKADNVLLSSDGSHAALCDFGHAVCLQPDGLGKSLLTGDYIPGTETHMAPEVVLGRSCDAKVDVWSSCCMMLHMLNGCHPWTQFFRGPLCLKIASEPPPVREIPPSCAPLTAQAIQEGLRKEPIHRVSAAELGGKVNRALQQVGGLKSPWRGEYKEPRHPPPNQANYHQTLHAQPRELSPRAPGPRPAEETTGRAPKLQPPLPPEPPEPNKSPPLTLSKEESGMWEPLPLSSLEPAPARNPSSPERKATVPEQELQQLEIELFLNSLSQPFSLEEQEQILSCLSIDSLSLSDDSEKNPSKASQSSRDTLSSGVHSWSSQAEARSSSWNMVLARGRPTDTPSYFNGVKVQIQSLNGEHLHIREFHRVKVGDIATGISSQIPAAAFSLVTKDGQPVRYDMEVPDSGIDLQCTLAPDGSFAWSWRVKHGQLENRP
Data set [3] concerns the target Misshapen-like kinase 1 (Homo sapiens) (UniProt Q8N4C8). The experiment in a line: Inhibition of recombinant GST-tagged human MINK1 catalytic domain (1 to 320 residues) expressed in Baculovirus expression system at 0.1 uM using Fluorescein-PKC as substrate incubated for 1 hr by TR-FRET assay relative to control. A general note: In TR-FRET formats the signal depends on donor and acceptor labels being close together.

In data set [4] the target is T2, Serine/threonine-protein kinase D1 (Homo sapiens) (UniProt Q15139).
T2 sequence (whole entry): T1 sequence (Q15139 whole entry)
The data set is described as follows: Inhibition of full length GST-tagged recombinant human PRKD1 expressed in Baculovirus expression system at 0.1 uM using Fluorescein-CREBtide as substrate incubated for 1 hr by TR-FRET assay relative to control.

Data set [5] has as its target Mitogen-activated protein kinase kinase kinase kinase 4 (Homo sapiens) (UniProt O95819). The experiment in a line: Inhibition of recombinant GST-tagged human MAP4K4 catalytic domain (1 to 328 residues) expressed in Baculovirus expression system at 0.1 uM using Fluorescein-PKC as substrate incubated for 1 hr by TR-FRET assay relative to control.
A short description of data set [6]: Kinetic solubility of the compound. The format is physicochemical. The settings on record: read-out: Kinetic_solubility.
Data set [7] can be described thus: Lipophilicity, log D of the compound at pH 7.4. In kind it is physicochemical. The following applies: buffer.
Data set [8] addresses Aurora kinase B (Homo sapiens) (UniProt Q96GD4). The experiment in a line: Inhibition of full length His-tagged recombinant human AURKB expressed in Baculovirus expression system at 0.1 uM using Fluorescein-PKC as substrate incubated for 1 hr by TR-FRET assay relative to control.
Data set [9] addresses Serine/threonine-protein kinase PAK 4 (Homo sapiens) (UniProt O96013). The data set is described as follows: Inhibition of recombinant GST-tagged human PAK4 catalytic domain (295 to 591 residues) expressed in Baculovirus expression system at 0.1 uM using Fluorescein-Crosstide as substrate incubated for 1 hr by TR-FRET assay relative to control.
In data set [10] the target is Tyrosine-protein kinase JAK1 (Homo sapiens) (UniProt P23458). The data set is described as follows: Inhibition of recombinant GST-tagged human JAK1 catalytic domain (866 to 1154 residues) expressed in Baculovirus expression system at 0.1 uM using GFP-STAT1 as substrate incubated for 1 hr by TR-FRET assay relative to control.
The target of data set [11] is RAC-alpha serine/threonine-protein kinase (Homo sapiens) (UniProt P31749). The data set is described as follows: Inhibition of full length His-tagged recombinant human AKT1 expressed in Baculovirus expression system at 0.1 uM using Fluorescein-Crosstide as substrate incubated for 1 hr by TR-FRET assay relative to control.
Sequence of RAC-alpha serine/threonine-protein kinase (Homo sapiens) (P31749 whole entry): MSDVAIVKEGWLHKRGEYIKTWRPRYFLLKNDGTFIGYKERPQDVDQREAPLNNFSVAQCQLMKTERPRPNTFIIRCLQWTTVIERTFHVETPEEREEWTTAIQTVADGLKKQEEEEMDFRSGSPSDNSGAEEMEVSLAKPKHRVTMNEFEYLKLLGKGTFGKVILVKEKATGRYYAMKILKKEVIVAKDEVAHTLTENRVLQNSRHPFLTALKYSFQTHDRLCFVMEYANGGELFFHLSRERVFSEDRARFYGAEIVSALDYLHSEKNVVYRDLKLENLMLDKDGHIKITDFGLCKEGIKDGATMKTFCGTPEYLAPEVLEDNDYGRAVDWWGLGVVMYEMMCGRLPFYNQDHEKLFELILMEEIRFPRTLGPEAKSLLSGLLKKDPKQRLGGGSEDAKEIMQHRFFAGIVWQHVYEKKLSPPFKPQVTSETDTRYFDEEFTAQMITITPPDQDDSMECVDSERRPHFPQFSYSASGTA

In brackets after ≈: the same amount, converted by molar mass. Activity calls are given as the source filed them. The calls are words filed in the database; no cut-off is given here.

Sequence of Aurora kinase B (Homo sapiens) (Q96GD4 whole entry, the tested form may be a part): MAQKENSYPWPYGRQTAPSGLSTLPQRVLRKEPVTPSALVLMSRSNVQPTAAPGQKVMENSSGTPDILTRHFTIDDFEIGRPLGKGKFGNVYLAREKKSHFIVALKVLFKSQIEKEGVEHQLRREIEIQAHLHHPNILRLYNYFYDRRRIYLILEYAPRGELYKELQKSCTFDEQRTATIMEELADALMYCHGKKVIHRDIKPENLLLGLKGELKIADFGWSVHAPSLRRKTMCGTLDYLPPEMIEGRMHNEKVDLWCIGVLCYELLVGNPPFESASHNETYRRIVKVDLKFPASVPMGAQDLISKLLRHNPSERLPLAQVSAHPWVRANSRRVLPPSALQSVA
Sequence of Misshapen-like kinase 1 (Homo sapiens) (Q8N4C8 whole entry, looked up, the tested form may be a part): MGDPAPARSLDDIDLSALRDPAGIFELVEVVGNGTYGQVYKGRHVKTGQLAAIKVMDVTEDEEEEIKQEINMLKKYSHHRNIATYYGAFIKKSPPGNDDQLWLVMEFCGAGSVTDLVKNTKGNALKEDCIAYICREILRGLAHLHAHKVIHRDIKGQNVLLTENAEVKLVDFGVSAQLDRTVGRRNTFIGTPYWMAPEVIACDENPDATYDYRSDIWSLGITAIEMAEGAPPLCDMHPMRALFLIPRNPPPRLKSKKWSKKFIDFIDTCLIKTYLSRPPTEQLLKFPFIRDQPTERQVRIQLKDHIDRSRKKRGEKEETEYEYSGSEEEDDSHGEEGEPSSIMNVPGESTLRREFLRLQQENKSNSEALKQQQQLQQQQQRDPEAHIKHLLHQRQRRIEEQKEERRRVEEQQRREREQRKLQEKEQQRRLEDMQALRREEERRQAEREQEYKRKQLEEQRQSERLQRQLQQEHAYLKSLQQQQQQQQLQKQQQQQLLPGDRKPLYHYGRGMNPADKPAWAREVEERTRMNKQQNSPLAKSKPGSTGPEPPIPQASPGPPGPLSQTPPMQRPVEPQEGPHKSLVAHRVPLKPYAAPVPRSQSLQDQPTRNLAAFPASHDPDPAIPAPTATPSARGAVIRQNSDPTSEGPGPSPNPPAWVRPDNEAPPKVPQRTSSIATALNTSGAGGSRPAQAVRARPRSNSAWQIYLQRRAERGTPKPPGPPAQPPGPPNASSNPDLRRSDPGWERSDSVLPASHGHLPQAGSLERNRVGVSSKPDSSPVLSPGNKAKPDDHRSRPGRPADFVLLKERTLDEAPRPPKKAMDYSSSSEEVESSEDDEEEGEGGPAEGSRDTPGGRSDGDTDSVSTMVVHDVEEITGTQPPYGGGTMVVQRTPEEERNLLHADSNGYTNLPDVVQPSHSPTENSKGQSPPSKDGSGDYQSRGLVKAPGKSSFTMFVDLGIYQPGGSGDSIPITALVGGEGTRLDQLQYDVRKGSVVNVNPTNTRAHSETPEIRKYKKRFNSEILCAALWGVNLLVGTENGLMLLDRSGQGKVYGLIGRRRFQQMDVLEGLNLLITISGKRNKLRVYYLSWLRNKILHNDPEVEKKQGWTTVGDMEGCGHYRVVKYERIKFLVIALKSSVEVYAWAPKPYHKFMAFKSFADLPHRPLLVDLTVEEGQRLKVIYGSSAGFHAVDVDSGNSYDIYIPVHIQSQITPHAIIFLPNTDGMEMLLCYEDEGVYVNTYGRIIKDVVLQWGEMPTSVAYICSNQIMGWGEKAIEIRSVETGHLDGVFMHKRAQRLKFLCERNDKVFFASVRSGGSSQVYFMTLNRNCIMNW
Sequence of Mitogen-activated protein kinase kinase kinase kinase 4 (Homo sapiens) (O95819 2-1239 limits assumed): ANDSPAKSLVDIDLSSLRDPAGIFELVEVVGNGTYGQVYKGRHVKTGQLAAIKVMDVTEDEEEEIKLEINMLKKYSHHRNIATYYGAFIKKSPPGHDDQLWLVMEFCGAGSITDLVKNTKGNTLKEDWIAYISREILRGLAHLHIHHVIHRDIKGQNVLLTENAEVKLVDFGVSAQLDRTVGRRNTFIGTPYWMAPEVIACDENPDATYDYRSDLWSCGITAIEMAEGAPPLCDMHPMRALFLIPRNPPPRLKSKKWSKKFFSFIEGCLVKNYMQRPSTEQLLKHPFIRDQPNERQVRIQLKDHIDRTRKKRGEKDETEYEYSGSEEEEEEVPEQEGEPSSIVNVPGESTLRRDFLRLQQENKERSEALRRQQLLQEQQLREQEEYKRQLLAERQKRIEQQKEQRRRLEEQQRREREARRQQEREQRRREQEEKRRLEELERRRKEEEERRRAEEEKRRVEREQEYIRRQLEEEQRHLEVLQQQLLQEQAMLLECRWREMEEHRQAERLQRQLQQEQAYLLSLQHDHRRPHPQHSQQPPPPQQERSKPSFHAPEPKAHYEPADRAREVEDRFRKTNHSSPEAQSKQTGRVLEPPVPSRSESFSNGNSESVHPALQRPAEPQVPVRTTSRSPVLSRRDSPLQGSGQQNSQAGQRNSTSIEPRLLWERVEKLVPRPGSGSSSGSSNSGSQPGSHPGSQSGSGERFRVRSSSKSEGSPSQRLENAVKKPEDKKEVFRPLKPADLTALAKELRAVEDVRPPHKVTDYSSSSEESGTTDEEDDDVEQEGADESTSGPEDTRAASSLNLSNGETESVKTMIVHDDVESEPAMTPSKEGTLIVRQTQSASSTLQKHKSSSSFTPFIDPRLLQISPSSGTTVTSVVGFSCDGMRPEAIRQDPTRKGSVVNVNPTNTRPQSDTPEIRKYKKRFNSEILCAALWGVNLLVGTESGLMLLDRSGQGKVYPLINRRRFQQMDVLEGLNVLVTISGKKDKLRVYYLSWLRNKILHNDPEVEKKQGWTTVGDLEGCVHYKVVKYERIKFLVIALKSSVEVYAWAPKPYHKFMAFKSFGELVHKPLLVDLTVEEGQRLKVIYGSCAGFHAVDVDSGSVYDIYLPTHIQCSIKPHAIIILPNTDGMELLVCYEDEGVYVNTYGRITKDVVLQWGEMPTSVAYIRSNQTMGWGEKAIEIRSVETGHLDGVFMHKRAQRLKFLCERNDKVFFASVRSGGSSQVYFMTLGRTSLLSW
Sequence of Serine/threonine-protein kinase PAK 4 (Homo sapiens) (O96013 whole entry, looked up, the tested form may be a part): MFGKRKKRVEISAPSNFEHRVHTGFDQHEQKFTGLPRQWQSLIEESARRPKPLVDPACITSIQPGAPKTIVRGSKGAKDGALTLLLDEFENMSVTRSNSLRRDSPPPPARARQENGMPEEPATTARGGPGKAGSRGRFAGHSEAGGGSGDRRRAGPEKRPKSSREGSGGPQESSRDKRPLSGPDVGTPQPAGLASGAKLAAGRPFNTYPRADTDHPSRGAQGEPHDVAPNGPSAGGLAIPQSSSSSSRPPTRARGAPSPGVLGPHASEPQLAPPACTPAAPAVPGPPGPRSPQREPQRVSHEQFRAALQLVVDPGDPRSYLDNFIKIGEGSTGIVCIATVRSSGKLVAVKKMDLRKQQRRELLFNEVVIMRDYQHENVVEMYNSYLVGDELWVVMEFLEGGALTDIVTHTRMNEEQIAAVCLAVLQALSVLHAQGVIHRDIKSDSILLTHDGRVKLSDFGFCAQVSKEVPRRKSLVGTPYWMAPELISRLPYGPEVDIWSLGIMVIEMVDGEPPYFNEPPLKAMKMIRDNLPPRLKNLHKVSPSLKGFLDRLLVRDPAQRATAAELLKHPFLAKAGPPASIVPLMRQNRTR

By Ki is commonly meant a measure of affinity in units of concentration, obtained from inhibition or displacement. Low readings indicate tighter binding, high ones weaker binding. For `Cc1cc([C@@](C)(O)C#Cc2ccc3c(c2)-c2nc(C(N)=O)cn2CCO3)no1`, the Ki in data set [1] was 14 nM; in data set [2], over 250 nM.
What is called inhibition is how much of the control response was suppressed. A word on the logD: it is the decadic logarithm of the distribution of all forms, ionised or not, between an organic phase and buffer at a given pH. The low end stands for a more hydrophilic compound, the high end for a more lipophilic compound. Regarding `CNC(=O)c1c(C(N)=O)nc2n1C1CC(C1)c1ccc(C#CC(C)(C)c3ncc(C)o3)cc1-2`, the inhibition in [3] was 51%; in data set [5] it was 57%; in data set [8], 45%. Besides, the Ki was under 0.2 nM in data set [1] and over 1250 nM in data set [2]. Moreover, the inhibition entry in [4] was “Active”. The solubility kinetic in [6] turned out to be 13 µM (≈ 5.77 µg/mL). In data set [7], this molecule came in with a logD of 3.7.
In [2], `CNC(=O)c1c(C(N)=O)nc2n1C1CC(C1)c1cc(F)c(C#C[C@@](C)(O)c3cc(C)on3)cc1-2` yielded a Ki of 14 nM. In other words, the double-digit nanomolar range.
On to `Cc1cc([C@@](C)(O)C#Cc2ccc3c(c2)-c2nc(C(N)=O)cn2C2CC3C2)no1`, for which the Ki in data set [1] was 65 nM; in data set [2] it was 582 nM.
`Cc1cc([C@@](C)(O)C#Cc2ccc3c(c2)-c2nc(C(N)=O)c(C4CC4)n2CCO3)no1`: the inhibition is 20% in [3]; 7% in data set [9]; 1% in [10]; 4% in data set [11]; over 30% in [4]; 21% in [5]. The inhibition constant (Ki) was under 0.2 nM in data set [1] and at least 1250 nM in data set [2]. For the same molecule, the solubility kinetic in [6] worked out at 124 µM (≈ 51.9 µg/mL). In addition, the pH-dependent lipophilicity (logD) in [7] was determined as 2.
As for `Cc1cc([C@](C)(O)C#Cc2cc3c(cc2F)C2CC(C2)n2c-3nc(C(N)=O)c2C2CC2)no1`, in [1], the Ki was under 0.2 nM. This molecule gave a logD in data set [7] of 3.7.
For the molecule `Cc1cc([C@](C)(O)C#Cc2ccc3c(c2)-c2nc(C(N)=O)cn2C2CC3C2)no1`, the Ki stood at 0.9 nM in data set [1] and 0.8 nM in data set [2].
The corresponding values for `CCOc1nc2ccc(C#C[C@@](C)(O)c3ncc(C)o3)cc2n1-c1ccnc(N)n1` are 3.6 nM and 0.16 nM.
For `NC(=O)c1cn2c(n1)-c1cc(C#CC3(O)CCCC3)ccc1C1CC2C1` the same measures were 25 nM and 10 nM.
For `Cc1cc([C@](C)(O)C#Cc2ccc3c(c2)-c2nc(C(N)=O)cn2CCO3)no1` the same measures were 4.9 nM and 3.1 nM.
With `CCOc1nc2ccc(C#C[C@](C)(O)c3ncc(C)o3)cc2n1-c1ccnc(N)n1`, the Ki in data set [1] is 62 nM; in data set [2], 634 nM.
For `NC(=O)c1cn2c(n1)-c1cc(C#CC3CCCC3)ccc1C1CC2C1` the same measures were 44 nM and over 1250 nM.
For `Cc1cnc(C(C)(C)C#Cc2ccc3c(c2)-c2nc(C(N)=O)c(C4CC4)n2C2CC3C2)o1`, the Ki in data set [1] was under 0.2 nM; in data set [2] it was over 1250 nM. In addition, in data set [6], the solubility kinetic came to 35 µM (≈ 14.9 µg/mL). In [7], the logD turned out to be 4.4. In addition, the inhibition in data set [8] was over 40%.
In data set [1], `Cc1cnc([C@@](C)(O)C#Cc2ccc3c(c2)-c2nc(C(N)=O)cn2C2CC3C2)o1` registered an inhibition constant (Ki) of 4.2 nM.
Turning to `Cc1cc([C@](C)(O)C#Cc2cc3c(cc2F)C2CC(C2)n2cc(C(N)=O)nc2-3)no1`, the Ki is 5.9 nM in [1] and 1 nM in data set [2].
For the molecule `Cc1cnc([C@](C)(O)C#Cc2ccc3c(c2)-c2nc(C(N)=O)cn2C2CC3C2)o1`, the inhibition constant (Ki) in [1] is under 0.2 nM.
